The target in data set [1] is Dual specificity mitogen-activated protein kinase kinase 1 (Homo sapiens) (UniProt Q02750). In words: Inhibition of N-terminal GST-fused MEK1 (unknown origin) expressed in FreeStyle 293 cells at 100 nM using GST-ERK1(K71A) as substrate preincubated for 5 mins followed by [gamma-33P]ATP addition and measured after 20 mins by topcount scintillation counting method relative to control.

For another data set, the system named is Mus musculus. In words: In-vivo inhibition of ALK in ip dosed ICR mouse hippocampus assessed as reduction in phosphorylated ALK level after 1 hr by Western blot analysis. The class given is functional, organism-based.
Data set [2] in a line: Drug level in Jcl-ICR mouse brain at 100 mg/kg, ip measured at 1 hr by LC/MS/MS analysis. The class given is ADME, organism-based. To be noted: read-out: Drug uptake.
The target of data set [3] is Hepatocyte growth factor receptor (Homo sapiens) (UniProt P08581). In words: Inhibition of recombinant human N-terminal GST-fused/His6-tagged c-MET (956 to 1390 residues) expressed in baculovirus infected Spodoptera frugiperda cells at 100 nM preincubated for 5 mins followed by ATP addition and measured after 10 mins by alphascreen assay relative to control. Background: Bead proximity is the source of the signal in Alpha formats.

In data set [4] the target is Mitogen-activated protein kinase 3 (Homo sapiens) (UniProt P27361). In words: Inhibition of N-terminal FLAG-tagged ERK1 (unknown origin) expressed in baculovirus expression system at 100 nM using myelin basic protein as substrate preincubated for 5 mins followed by [gamma-33P]ATP addition and measured after 60 mins by topcount scintillation counting method relative to control.
Sequence of Mitogen-activated protein kinase 3 (Homo sapiens) (P27361 whole entry): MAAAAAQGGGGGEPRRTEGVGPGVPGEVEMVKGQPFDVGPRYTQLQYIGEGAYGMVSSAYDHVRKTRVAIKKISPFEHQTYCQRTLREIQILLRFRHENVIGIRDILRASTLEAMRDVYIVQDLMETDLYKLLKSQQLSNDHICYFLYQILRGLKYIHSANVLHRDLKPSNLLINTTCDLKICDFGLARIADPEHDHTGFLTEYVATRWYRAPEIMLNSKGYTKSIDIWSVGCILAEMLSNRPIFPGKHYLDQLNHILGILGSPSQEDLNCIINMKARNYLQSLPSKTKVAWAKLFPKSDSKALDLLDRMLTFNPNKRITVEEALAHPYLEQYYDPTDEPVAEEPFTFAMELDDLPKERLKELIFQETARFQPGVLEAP

Data set [5] deals with Epidermal growth factor receptor (Homo sapiens) (UniProt P00533). In words: Inhibition of human N-terminal DYKDDDD-tagged EGFR cytoplasmic domain (669 to 1210 residues) expressed in baculovirus expression system at 100 nM using poly-Glu-Tyr(4:1) as substrate preincubated for 5 mins followed by [gamma-33P]ATP addition and measured after 10 mins by topcount scintillation counting method relative to control.

The target of data set [6] is Tyrosine-protein kinase JAK1 (Homo sapiens) (UniProt P23458). As to the kind of experiment: Inhibition of JAK1 (unknown origin) at 100 nM by [gamma-33P]ATP-based radiometric or Alphascreen assay relative to control.
Sequence of Tyrosine-protein kinase JAK1 (Homo sapiens) (P23458 whole entry): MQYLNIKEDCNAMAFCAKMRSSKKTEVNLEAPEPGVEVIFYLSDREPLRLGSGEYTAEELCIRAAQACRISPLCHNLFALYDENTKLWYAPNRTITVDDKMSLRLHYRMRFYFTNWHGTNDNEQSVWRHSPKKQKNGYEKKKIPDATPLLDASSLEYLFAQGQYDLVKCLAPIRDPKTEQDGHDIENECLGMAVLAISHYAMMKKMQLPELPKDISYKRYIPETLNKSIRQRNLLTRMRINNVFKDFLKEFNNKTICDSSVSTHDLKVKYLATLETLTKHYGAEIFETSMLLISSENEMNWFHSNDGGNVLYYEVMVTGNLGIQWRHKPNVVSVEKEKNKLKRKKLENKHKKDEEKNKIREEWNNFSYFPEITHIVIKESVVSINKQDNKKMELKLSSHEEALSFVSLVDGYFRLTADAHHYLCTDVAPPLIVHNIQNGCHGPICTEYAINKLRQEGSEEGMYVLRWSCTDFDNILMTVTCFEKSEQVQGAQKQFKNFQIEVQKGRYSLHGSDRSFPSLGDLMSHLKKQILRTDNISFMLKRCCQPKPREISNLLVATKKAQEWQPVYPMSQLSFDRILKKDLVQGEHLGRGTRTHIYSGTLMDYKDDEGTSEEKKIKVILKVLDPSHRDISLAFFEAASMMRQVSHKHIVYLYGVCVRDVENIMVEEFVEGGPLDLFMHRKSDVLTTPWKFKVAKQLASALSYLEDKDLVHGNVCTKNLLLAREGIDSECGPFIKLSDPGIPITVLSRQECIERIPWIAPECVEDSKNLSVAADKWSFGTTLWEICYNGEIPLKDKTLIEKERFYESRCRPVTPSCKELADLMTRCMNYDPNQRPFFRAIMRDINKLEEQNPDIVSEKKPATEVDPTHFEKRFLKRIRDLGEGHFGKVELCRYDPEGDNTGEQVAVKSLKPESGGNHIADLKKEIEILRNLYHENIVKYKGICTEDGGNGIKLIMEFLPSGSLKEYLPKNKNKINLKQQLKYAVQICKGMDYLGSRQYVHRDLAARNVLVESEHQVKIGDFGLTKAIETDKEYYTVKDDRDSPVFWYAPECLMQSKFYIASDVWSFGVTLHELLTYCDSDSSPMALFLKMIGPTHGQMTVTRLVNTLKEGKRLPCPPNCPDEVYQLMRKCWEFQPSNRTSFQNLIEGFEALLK
The target of data set [7] is T1, Focal adhesion kinase 1 (Homo sapiens, UniProt Q05397). In words: Inhibition of full-length N-terminal FLAG-tagged FAK (unknown origin) expressed in baculovirus expression system at 100 nM preincubated for 5 mins followed by ATP addition and measured after 60 mins by alphascreen assay relative to control.
Data set [8] addresses Glycogen synthase kinase-3 beta (Homo sapiens) (UniProt P49841). As to the kind of experiment: Inhibition of N-terminal FLAG-tagged GSK3beta (unknown origin) expressed in baculovirus expression system at 100 nM using pGS peptide as substrate preincubated for 5 mins followed by [gamma-33P]ATP addition and measured after 30 mins by topcount scintillation counting method relative to control.

Data set [9] concerns the target Cell division cycle 7-related protein kinase (Homo sapiens) (UniProt O00311). As to the kind of experiment: Inhibition of CDC7 (unknown origin) at 100 nM by [gamma-33P]ATP-based radiometric or Alphascreen assay relative to control.
The target in data set [10] is Mitogen-activated protein kinase kinase kinase 5 (Homo sapiens) (UniProt Q99683). In words: Inhibition of N-terminal FLAG-tagged ASK1 (unknown origin) expressed in baculovirus expression system at 100 nM using myelin basic protein as substrate preincubated for 5 mins followed by [gamma-33P]ATP addition and measured after 60 mins by topcount scintillation counting method relative to control.
Sequence of Mitogen-activated protein kinase kinase kinase 5 (Homo sapiens) (Q99683 whole entry): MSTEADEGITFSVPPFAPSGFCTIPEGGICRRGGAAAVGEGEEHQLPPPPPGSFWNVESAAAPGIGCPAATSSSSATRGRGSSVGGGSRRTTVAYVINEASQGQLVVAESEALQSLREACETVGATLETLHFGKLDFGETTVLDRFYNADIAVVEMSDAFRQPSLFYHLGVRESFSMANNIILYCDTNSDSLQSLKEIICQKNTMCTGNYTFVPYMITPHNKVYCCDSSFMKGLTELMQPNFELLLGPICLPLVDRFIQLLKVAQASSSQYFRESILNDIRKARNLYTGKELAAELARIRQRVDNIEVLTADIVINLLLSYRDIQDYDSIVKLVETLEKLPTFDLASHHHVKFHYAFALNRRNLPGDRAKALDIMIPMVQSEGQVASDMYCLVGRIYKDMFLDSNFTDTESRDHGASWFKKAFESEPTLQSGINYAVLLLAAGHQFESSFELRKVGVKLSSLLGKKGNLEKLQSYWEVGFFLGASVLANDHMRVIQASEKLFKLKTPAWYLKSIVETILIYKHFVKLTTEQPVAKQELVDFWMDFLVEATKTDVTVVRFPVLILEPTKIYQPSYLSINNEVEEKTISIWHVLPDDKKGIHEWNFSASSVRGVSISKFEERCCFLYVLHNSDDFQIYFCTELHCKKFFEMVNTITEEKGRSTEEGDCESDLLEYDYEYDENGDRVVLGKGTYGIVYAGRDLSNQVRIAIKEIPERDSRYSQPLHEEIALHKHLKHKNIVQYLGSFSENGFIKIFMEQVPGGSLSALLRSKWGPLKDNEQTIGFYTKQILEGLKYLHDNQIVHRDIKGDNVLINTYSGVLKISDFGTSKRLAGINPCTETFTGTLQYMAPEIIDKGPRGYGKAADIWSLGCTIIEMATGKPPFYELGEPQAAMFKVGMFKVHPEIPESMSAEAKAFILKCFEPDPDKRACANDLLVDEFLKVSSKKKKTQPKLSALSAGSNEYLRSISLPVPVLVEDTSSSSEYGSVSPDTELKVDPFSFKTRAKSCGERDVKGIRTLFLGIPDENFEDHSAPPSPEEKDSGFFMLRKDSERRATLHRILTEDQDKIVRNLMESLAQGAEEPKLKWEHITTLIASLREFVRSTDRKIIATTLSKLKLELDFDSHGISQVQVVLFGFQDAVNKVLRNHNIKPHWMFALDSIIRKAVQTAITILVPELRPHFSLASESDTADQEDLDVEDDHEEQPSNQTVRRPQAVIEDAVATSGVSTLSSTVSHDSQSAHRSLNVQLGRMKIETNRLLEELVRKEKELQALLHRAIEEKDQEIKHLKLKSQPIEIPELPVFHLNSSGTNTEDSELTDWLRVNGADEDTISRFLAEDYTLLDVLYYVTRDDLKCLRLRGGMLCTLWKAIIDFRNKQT

Data set [11] in a line: Unbound brain-to-plasma concentration ratio in Jcl-ICR mouse at 100 mg/kg, ip measured at 0.5 hrs by LC/MS/MS analysis. The class given is ADME, organism-based. To be noted: read-out: K(p,uu,brain).
The target of data set [12] is Cyclin-dependent kinase 2 (Homo sapiens) (UniProt P24941). As to the kind of experiment: Inhibition of CDK2 (unknown origin) at 100 nM by [gamma-33P]ATP-based radiometric or Alphascreen assay relative to control.
In data set [13] the target is T1, Focal adhesion kinase 1. As to the kind of experiment: Inhibition of human FAK kinase domain (411 to 686 residues) expressed in baculovirus expression system using biotin-poly-GT as substrate pre-incubated for 10 mins followed by ATP addition and measured after 60 mins by HTRF method. A general note: In TR-FRET formats the signal depends on donor and acceptor labels being close together.
Target sequence in this assay (Q05397 whole entry): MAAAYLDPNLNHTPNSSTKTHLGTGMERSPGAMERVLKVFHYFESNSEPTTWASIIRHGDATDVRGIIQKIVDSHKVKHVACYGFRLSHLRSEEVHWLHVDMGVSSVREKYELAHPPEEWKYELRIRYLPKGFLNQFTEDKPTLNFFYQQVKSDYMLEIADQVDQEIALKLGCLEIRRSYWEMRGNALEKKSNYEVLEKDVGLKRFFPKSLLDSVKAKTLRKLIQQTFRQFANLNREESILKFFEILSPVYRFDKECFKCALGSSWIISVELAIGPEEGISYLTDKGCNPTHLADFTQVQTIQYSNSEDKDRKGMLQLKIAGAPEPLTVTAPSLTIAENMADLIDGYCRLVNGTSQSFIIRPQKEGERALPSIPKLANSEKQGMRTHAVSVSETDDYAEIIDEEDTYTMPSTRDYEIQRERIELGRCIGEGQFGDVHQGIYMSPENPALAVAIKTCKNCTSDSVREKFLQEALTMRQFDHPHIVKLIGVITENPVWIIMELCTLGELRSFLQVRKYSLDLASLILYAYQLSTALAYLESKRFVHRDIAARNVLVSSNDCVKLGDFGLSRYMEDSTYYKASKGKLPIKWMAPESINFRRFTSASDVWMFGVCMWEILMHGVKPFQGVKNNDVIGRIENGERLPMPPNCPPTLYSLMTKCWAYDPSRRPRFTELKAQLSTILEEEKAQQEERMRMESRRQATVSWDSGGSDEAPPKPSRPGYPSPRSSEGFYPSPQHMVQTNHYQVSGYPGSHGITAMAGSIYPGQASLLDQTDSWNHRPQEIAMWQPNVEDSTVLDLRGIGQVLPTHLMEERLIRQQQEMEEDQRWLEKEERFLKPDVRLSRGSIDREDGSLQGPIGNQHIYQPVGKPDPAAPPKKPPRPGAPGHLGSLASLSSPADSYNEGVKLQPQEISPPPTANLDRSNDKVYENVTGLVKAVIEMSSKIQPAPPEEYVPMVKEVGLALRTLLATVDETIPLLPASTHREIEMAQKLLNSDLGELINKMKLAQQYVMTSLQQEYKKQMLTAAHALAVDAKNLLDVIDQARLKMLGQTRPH

Data set [14] addresses Serine/threonine-protein kinase Chk1 (Homo sapiens) (UniProt O14757). As to the kind of experiment: Inhibition of CHEK1 (unknown origin) at 100 nM by [gamma-33P]ATP-based radiometric or Alphascreen assay relative to control.
For data set [15], the target named is Ephrin type-A receptor 5 (Homo sapiens) (UniProt P54756). As to the kind of experiment: Inhibition of EPHA5 (unknown origin) at 100 nM by [gamma-33P]ATP-based radiometric or Alphascreen assay relative to control.
A short description of data set [16]: Brain to plasma partition coefficient, Kp of the compound in Jcl-ICR mouse at 100 mg/kg, ip measured at 0.5 hrs by LC/MS/MS analysis. In kind it is ADME, organism-based.
Data set [17] is described as follows: Fraction unbound in ICR mouse plasma at 1 umol/L measured for 20 hrs by equilibrium dialysis based LC-MS/MS analysis. In kind it is ADME, cell-free. The note with it: 1 µM. (In equilibrium dialysis free small molecules cross a membrane that holds back macromolecules.)

As a reminder, the inhibition is the drop in the measured response relative to a control, in per cent. A word on the IC50: it is the point on the concentration scale where inhibition reaches its midpoint. Usually Kp stands for the ratio of the level in a tissue or fluid to that in plasma or blood.

Sequence of Serine/threonine-protein kinase Chk1 (Homo sapiens) (O14757 whole entry): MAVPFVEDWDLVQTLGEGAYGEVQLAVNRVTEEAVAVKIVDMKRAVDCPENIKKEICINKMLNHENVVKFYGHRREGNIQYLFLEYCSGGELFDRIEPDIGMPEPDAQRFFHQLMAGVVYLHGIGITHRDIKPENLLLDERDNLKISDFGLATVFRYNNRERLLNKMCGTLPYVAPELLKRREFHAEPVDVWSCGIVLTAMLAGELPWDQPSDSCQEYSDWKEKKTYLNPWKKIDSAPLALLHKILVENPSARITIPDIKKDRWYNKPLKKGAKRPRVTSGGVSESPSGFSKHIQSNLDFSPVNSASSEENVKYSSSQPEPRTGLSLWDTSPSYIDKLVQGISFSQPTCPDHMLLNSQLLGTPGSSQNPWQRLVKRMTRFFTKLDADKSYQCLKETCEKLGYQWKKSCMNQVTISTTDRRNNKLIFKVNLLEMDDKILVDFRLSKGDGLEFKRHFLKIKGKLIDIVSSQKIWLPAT
Sequence of Cell division cycle 7-related protein kinase (Homo sapiens) (O00311 whole entry, looked up): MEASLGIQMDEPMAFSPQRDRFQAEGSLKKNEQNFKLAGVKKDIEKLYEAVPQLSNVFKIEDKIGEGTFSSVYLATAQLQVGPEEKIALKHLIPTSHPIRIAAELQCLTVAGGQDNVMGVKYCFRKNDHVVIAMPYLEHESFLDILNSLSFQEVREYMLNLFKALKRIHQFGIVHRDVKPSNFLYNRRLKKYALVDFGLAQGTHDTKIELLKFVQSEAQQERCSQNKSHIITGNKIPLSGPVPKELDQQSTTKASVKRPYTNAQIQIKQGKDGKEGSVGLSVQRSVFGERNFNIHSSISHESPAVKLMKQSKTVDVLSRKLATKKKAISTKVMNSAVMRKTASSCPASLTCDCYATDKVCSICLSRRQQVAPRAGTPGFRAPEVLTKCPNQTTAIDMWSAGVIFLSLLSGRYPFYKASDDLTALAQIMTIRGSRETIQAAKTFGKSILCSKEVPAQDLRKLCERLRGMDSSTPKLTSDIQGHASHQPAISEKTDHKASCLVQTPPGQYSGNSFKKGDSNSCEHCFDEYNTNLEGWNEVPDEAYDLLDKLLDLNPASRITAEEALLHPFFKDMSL

`Cc1cc(-n2cc(C(=O)N3CCO[C@@H](C)C3)c3ccc(O[C@@H](C)c4ccc(F)cn4)nc32)n[nH]1`: the inhibition is -1% in data set [1]; “Dose-dependent effect” with Mus musculus; -5% in data set [3]; 3% in data set [4]; -1% in data set [5]; -8% in data set [6]. Besides, the inhibition on Focal adhesion kinase 1 [7] was 83%; in data set [8], 3%; in [9], -2%; in [10] it was -1%; in data set [12], 5%; in data set [14], -9%. For the same compound, the inhibition in data set [15] is -2%. Besides, the concentration at 1 h in data set [2] came out at 33400 ng/mL. Moreover, in data set [11], the Kp uu at 0.5 h was 0.27. For the same compound, the IC50 at Focal adhesion kinase 1 [13] is 25 nM. Moreover, in data set [16], the Kp at 0.5 h is 1.26. Besides, the Fu in data set [17] worked out at 0.08%.

These data come from ChEMBL document CHEMBL4396868, “Discovery of Potent, Selective, and Brain-Penetrant 1 H-Pyrazol-5-yl-1 H-pyrrolo[2,3- b]pyridines as Anaplastic Lymphoma Kinase (ALK) Inhibitors” (J Med Chem, 2019).
